Assay [1] has as its target T1, recombinant human JAK1 kinase domain protein (Residues 854-1154) (Homo sapiens, UniProt P23458).
T1 construct: human JAK1 kinase domain protein (Residues 854-1154); purchased Proteros Biostructures GmbH (Martinsried, Germany); host or cells: insect cells
The experiment in a line: JAK1 biochemical assay (microfluidic mobility shift, peptide phosphorylation). As to conditions: 25 μM ATP, 1 nM total JAK1; Ki calculated from Ki app (tight-binding, competitive); read-out: Biochem JAK1 Ki. The procedure, abridged: (§1)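 Insect-cell-expressed human JAK1 (1 nM, residues 854-1154) or JAK2 (0.2 nM, residues 812-1132) phosphorylating 1.5 μM 5-FAM peptide Y-1B with 25 μM ATP, pH 7.2 HEPES, 30 min at 22-23 °C; twelve concentrations up to 1000 nM in duplicate. Mobility-shift % conversion fitted to tight-binding quadratic for Ki^app.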

In assay [2] the test system is JAK1 (IL-13-stimulated STAT6 phosphorylation in BEAS-2B cells). The experiment in a line: P-STAT6 BEAS-2B+IL-13 cell assay. The class given is cell-based, human. As to conditions: Homo sapiens, BEAS-2B, 1 h, 1 hour compound, IL-13 15 minutes, IC50 by four-parameter fit, read-out: Cellular JAK1 PSTAT6 BEAS2B + IL13. In a few lines: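 BEAS-2B human bronchial epithelial cells preincubated 1 h at 37 °C with compound, then stimulated with human recombinant IL-13 for 15 min. Phospho-STAT6 (Tyr641) in lysates measured by MSD electrochemiluminescence immunoassay; IC50 from a four-parameter logistic fit of percent of control.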

Assay [3] addresses T2, Recombinant human JAK2 kinase domain protein (Residues 812-1132) (Homo sapiens, UniProt O60674).
T2 construct: human JAK2 kinase domain protein (Residues 812-1132); made in house; host or cells: insect cells
In words: JAK2 biochemical assay (microfluidic mobility shift, peptide phosphorylation). As to conditions: 25 μM ATP, 0.2 nM total JAK2; Ki calculated from Ki app (tight-binding, competitive); read-out: Biochem JAK2 Ki. The procedure, abridged: as §1

SMILES strings stand for the structures. Some results are limits rather than exact numbers.

Drawing on patent publication US12247032B2, “Substituted pyrazolo[1,5-a]pyrimidines as inhibitors of JAK kinases” (Genentech, Inc., priority 2019, dated 2025), this text covers Ki and IC50 for 18 molecules.

T1 sequence (P23458 854-1154): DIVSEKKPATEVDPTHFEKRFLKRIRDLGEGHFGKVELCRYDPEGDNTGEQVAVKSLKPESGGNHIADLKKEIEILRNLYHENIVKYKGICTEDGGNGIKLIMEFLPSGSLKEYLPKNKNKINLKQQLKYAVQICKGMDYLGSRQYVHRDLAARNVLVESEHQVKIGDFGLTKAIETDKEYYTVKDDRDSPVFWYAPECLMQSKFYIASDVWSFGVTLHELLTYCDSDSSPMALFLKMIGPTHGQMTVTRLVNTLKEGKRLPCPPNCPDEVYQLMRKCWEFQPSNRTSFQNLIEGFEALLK
T2 sequence (O60674 812-1132): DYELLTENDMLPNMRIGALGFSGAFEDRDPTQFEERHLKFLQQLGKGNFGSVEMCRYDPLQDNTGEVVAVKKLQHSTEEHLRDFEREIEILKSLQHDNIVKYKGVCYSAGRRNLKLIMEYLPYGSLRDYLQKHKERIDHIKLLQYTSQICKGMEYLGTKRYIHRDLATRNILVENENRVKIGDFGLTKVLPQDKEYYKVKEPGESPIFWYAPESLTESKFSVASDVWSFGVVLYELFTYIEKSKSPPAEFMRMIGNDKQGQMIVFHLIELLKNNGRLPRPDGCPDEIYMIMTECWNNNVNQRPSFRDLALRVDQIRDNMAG

Regarding `CSc1ccc(OC(F)F)c(-c2nn(Cc3nnn(C4CN(CCN(C)C)C4)n3)cc2NC(=O)c2cnn3cccnc23)c1` [Example 47, N-[3-[2-(difluoromethoxy)-5-methylsulfanyl-phenyl]-1-[[2-[1-[2-(dimethylamino)ethyl]azetidin-3-yl]tetrazol-5-yl]methyl]pyrazol-4-yl]pyrazolo[1,5-a]pyrimidine-3-carboxamide], the results for the Ki in assay [1] and in assay [3] were 0.46 nM and 0.32 nM, respectively. The IC50 in assay [2] came to 16 nM.
On to `CN1CC(N(C)CCn2nnc(Cn3cc(NC(=O)c4cnn5cccnc45)c(-c4cc(OC(F)F)ccc4OC(F)F)n3)n2)C1` [Example 48, N-[3-[2,5-bis(difluoromethoxy)phenyl]-1-[[2-[2-[methyl-(1-methylazetidin-3-yl)amino]ethyl]tetrazol-5-yl]methyl]pyrazol-4-yl]pyrazolo[1,5-a]pyrimidine-3-carboxamide], for which the Ki in assay [1] is 0.63 nM; in assay [3], 0.54 nM. In addition, the IC50 in assay [2] turned out to be 15 nM.
Consider `CN(C)CCN1CC(n2nnc(Cn3cc(NC(=O)c4cnn5cccnc45)c(-c4cc(C5CC5)ccc4OC(F)F)n3)n2)C1` [Example 50, N-[3-[5-cyclopropyl-2-(difluoromethoxy)phenyl]-1-[[2-[1-[2-(dimethylamino)ethyl]azetidin-3-yl]tetrazol-5-yl]methyl]pyrazol-4-yl]pyrazolo[1,5-a]pyrimidine-3-carboxamide], for which the Ki in assay [1] was 0.5 nM; in assay [3], 0.44 nM. Moreover, the IC50 in assay [2] is 16 nM.
For the molecule `CN(C)CCCN1CC(n2nnc(Cn3cc(NC(=O)c4cnn5cccnc45)c(-c4cc(OC(F)F)ccc4OC(F)F)n3)n2)C1` [Example 51, N-[3-[2,5-bis(difluoromethoxy)phenyl]-1-[[2-[1-[3-(dimethylamino)propyl]azetidin-3-yl]tetrazol-5-yl]methyl]pyrazol-4-yl]pyrazolo[1,5-a]pyrimidine-3-carboxamide], the Ki in assay [1] and in assay [3] was 0.37 nM each time. In addition, the IC50 in assay [2] came out at 12 nM.
For `CN(C)CCCCN1CC(n2nnc(Cn3cc(NC(=O)c4cnn5cccnc45)c(-c4cc(OC(F)F)ccc4OC(F)F)n3)n2)C1` [Example 55, N-[3-[2,5-bis(difluoromethoxy)phenyl]-1-[[2-[1-[4-(dimethylamino)butyl]azetidin-3-yl]tetrazol-5-yl]methyl]pyrazol-4-yl]pyrazolo[1,5-a]pyrimidine-3-carboxamide], the results for the Ki in assay [1] and in assay [3] were 0.6 nM and 0.58 nM, respectively. For the same molecule, in assay [2], the IC50 was 44 nM.
On the same counts, the results for `CN1CC(CN2CC(n3nnc(Cn4cc(NC(=O)c5cnn6cccnc56)c(-c5cc(OC(F)F)ccc5OC(F)F)n4)n3)C2)C1` [Example 56, N-[3-[2,5-bis(difluoromethoxy)phenyl]-1-[[2-[1-[(1-methylazetidin-3-yl)methyl]azetidin-3-yl]tetrazol-5-yl]methyl]pyrazol-4-yl]pyrazolo[1,5-a]pyrimidine-3-carboxamide] are 0.84 nM, 0.73 nM and 80 nM.
On the same counts, the results for `CN(C)CCCN1CC(n2nnc(Cn3cc(NC(=O)c4cnn5cccnc45)c(-c4cc(C5CC5)ccc4OC(F)F)n3)n2)C1` [Example 57, N-[3-[5-cyclopropyl-2-(difluoromethoxy)phenyl]-1-[[2-[1-[3-(dimethylamino)propyl]azetidin-3-yl]tetrazol-5-yl]methyl]pyrazol-4-yl]pyrazolo[1,5-a]pyrimidine-3-carboxamide] are 0.71 nM, 0.55 nM and 73 nM.
On the same counts, the results for `CN(C)C1CCN(CCn2nnc(Cn3cc(NC(=O)c4cnn5cccnc45)c(-c4cc(OC(F)F)ccc4OC(F)F)n3)n2)CC1` [Example 59, N-[3-[2,5-bis(difluoromethoxy)phenyl]-1-[[2-[2-[4-(dimethylamino)-1-piperidyl]ethyl]tetrazol-5-yl]methyl]pyrazol-4-yl]pyrazolo[1,5-a]pyrimidine-3-carboxamide] are 1 nM, 0.71 nM and 62 nM.
On to `CN(C)C1CCN(CCn2nnnc2Cn2cc(NC(=O)c3cnn4cccnc34)c(-c3cc(OC(F)F)ccc3OC(F)F)n2)CC1` [Example 60, N-[3-[2,5-bis(difluoromethoxy)phenyl]-1-[[1-[2-[4-(dimethylamino)-1-piperidyl]ethyl]tetrazol-5-yl]methyl]pyrazol-4-yl]pyrazolo[1,5-a]pyrimidine-3-carboxamide], for which the Ki is 0.81 nM in assay [1] and 0.97 nM in assay [3]. Moreover, the IC50 in assay [2] stood at 70 nM.
For `CN(C)CCCN1CC(n2nnc(Cn3cc(NC(=O)c4cnn5cccnc45)c(-c4cc(Cl)ccc4OC(F)F)n3)n2)C1` [Example 62, N-[3-[5-chloro-2-(difluoromethoxy)phenyl]1-[[2-[1-[3-(dimethylamino)propyl]azetidin-3-yl]tetrazol-5-yl]methyl]pyrazol-4-yl]pyrazolo[1,5-a]pyrimidine-3-carboxamide] the same measures were 0.66 nM, 0.38 nM and 38 nM.
As for `CN(C)[C@H]1C[C@@H](n2nnc(Cn3cc(NC(=O)c4cnn5cccnc45)c(-c4cc(OC(F)F)ccc4OC(F)F)n3)n2)C1` [Example 63, N-[3-[2,5-bis(difluoromethoxy)phenyl]-1-[[2-[3-(dimethylamino)cyclobutyl]tetrazol-5-yl]methyl]pyrazol-4-yl]pyrazolo[1,5-a]pyrimidine-3-carboxamide], the values for the Ki in assay [1] and in assay [3] were 0.64 nM and 0.46 nM, respectively. In addition, the IC50 in assay [2] amounted to 22 nM.
Turning to `CN(C)[C@H]1C[C@H](n2nnc(Cn3cc(NC(=O)c4cnn5cccnc45)c(-c4cc(OC(F)F)ccc4OC(F)F)n3)n2)C1` [Example 64, N-[3-[2,5-bis(difluoromethoxy)phenyl]-1-[[2-[3-(dimethylamino)cyclobutyl]tetrazol-5-yl]methyl]pyrazol-4-yl]pyrazolo[1,5-a]pyrimidine-3-carboxamide; formic acid], the Ki in assay [1] was 0.87 nM; in assay [3], 0.55 nM. In assay [2], the IC50 turned out to be 17 nM.
Turning to `CN(C)CCCN1CC(n2nnnc2Cn2cc(NC(=O)c3cnn4cccnc34)c(-c3cc(OC(F)F)ccc3OC(F)F)n2)C1` [Example 65, N-[3-[2,5-bis(difluoromethoxy)phenyl]-1-[[1-[1-[3-(dimethylamino)propyl]azetidin-3-yl]tetrazol-5-yl]methyl]pyrazol-4-yl]pyrazolo[1,5-a]pyrimidine-3-carboxamide], the Ki in assay [1] was 0.41 nM; in assay [3], 0.38 nM. Moreover, the IC50 in assay [2] came out at 660 nM.
On the same counts, the results for `CN(C)C1CCC(n2nnc(Cn3cc(NC(=O)c4cnn5cccnc45)c(-c4cc(OC(F)F)ccc4OC(F)F)n3)n2)CC1` (stereo not drawn) [Example 66, N-[3-[2,5-bis(difluoromethoxy)phenyl]-1-[[2-[4-(dimethylamino)cyclohexyl]tetrazol-5-yl]methyl]pyrazol-4-yl]pyrazolo[1,5-a]pyrimidine-3-carboxamide] are 0.41 nM, 0.3 nM and 32 nM.
For `NC1CCC(n2nnnc2Cn2cc(NC(=O)c3cnn4cccnc34)c(-c3cc(OC(F)F)ccc3OC(F)F)n2)CC1` (stereo not drawn) [Example 69, N-[1-[[1-(4-aminocyclohexyl)tetrazol-5-yl]methyl]-3-[2,5-bis(difluoromethoxy)phenyl]pyrazol-4-yl]pyrazolo[1,5-a]pyrimidine-3-carboxamide] the same measures were 0.75 nM, 0.97 nM and at least 1000 nM.
On the same counts, the results for `CN(C)[C@H]1C[C@@H](N2CC(n3nnc(Cn4cc(NC(=O)c5cnn6cccnc56)c(-c5cc(OC(F)F)ccc5OC(F)F)n4)n3)C2)C1` [Example 71, N-[3-[2,5-bis(difluoromethoxy)phenyl]-1-[[2-[1-[3-(dimethylamino)cyclobutyl]azetidin-3-yl]tetrazol-5-yl]methyl]pyrazol-4-yl]pyrazolo[1,5-a]pyrimidine-3-carboxamide] are 1.4 nM, 1.1 nM and 23 nM.
As to `CN(C)C(C)(C)CCN1CC(n2nnc(Cn3cc(NC(=O)c4cnn5cccnc45)c(-c4cc(OC(F)F)ccc4OC(F)F)n3)n2)C1` [Example 77, N-[3-[2,5-bis(difluoromethoxy)phenyl]-1-[[2-[1-[3-(dimethylamino)-3-methyl-butyl]azetidin-3-yl]tetrazol-5-yl]methyl]pyrazol-4-yl]pyrazolo[1,5-a]pyrimidine-3-carboxamide], the figures for the Ki in assay [1] and in assay [3] were 0.38 nM and 0.39 nM, respectively. In addition, in assay [2], the IC50 was found to be 110 nM.
For `CC(C)Sc1ccc(OC(F)F)c(-c2nn(Cc3nnn(C4CN(C5CCN(C)CC5)C4)n3)cc2NC(=O)c2cnn3cccnc23)c1` [Example 79, N-[3-[2-(difluoromethoxy)-5-isopropylsulfanyl-phenyl]-1-[[2-[1-(1-methyl-4-piperidyl)azetidin-3-yl]tetrazol-5-yl]methyl]pyrazol-4-yl]pyrazolo[1,5-a]pyrimidine-3-carboxamide] the same measures were 0.5 nM, 0.44 nM and 40 nM.
